Assay results published in patent US8673906B2, “Chromenone derivatives” (AstraZeneca AB, priority 2010, dated 2014).
pIC50: −log10 of the molar value.

Target: PI3Kβ (Homo sapiens (Human), UniProt P42338)
Test: In vitro enzyme inhibition assay (Kinase Glo based enzyme activity assay)
Assay type: biochemical
Conditions: Test (a), human recombinant enzyme; read-out: PI3Kβ inhibition, IC50
Description: (a) In Vitro Enzyme Inhibition Assay
The inhibition of PI3Kβ, PI3Kα, PI3Kγ and PI3Kδ was evaluated in a Kinase Glo based enzyme activity assay using human recombinant enzymes. The assay measures depletion of ATP after incubation with enzyme, PIP2 and ATP plus compound. ATP at the end of the reaction is detected by addition of Kinase Glo reagent, in this the Ultra Glo™ luciferase (Promega) uses the ATP as a substrate to catalyze the mono-oxygenation of luciferin and the generation of light. A direct relationship exists between the luminescence measured with the Kinase-Glo Plus Reagent and the amount of ATP remaining in a completed kinase reaction and luminescence is inversely related to kinase activity. Twelve different compound concentrations were tested and raw data from the inhibition of PI3 Kb, PI3Kα, PI3Kγ and PI3Kδ was plotted versus inhibitor concentration.
Compounds in 100% DMSO were added to assay plates by acoustic dispensing. PI3Kβ was added in a Tris buffer (50 mM Tris pH7.4, 0.05% CHAPS, 2.1 mM DTT, and 10 mM MgCl2) and allowed to preincubate with compound for 20 minutes prior to addition of substrate solution containing PIP2 and ATP. The enzyme reaction was stopped after 80 minutes by the addition of Kinase Glo detection solution. Plates were left for 30 minutes at room temperature then read on a Pherastar Instrument (Luminescence ATP 384 program) setting gain on max well. The final concentration of DMSO, ATP and PIP2 in the assay were, 1%, 80 μM, and 80 μM respectively.
IC50 values were calculated using a log curve fitting to a non-linear regression package, fitting raw data to inhibitor concentration.

Sequence of PI3Kβ (P42338 whole entry): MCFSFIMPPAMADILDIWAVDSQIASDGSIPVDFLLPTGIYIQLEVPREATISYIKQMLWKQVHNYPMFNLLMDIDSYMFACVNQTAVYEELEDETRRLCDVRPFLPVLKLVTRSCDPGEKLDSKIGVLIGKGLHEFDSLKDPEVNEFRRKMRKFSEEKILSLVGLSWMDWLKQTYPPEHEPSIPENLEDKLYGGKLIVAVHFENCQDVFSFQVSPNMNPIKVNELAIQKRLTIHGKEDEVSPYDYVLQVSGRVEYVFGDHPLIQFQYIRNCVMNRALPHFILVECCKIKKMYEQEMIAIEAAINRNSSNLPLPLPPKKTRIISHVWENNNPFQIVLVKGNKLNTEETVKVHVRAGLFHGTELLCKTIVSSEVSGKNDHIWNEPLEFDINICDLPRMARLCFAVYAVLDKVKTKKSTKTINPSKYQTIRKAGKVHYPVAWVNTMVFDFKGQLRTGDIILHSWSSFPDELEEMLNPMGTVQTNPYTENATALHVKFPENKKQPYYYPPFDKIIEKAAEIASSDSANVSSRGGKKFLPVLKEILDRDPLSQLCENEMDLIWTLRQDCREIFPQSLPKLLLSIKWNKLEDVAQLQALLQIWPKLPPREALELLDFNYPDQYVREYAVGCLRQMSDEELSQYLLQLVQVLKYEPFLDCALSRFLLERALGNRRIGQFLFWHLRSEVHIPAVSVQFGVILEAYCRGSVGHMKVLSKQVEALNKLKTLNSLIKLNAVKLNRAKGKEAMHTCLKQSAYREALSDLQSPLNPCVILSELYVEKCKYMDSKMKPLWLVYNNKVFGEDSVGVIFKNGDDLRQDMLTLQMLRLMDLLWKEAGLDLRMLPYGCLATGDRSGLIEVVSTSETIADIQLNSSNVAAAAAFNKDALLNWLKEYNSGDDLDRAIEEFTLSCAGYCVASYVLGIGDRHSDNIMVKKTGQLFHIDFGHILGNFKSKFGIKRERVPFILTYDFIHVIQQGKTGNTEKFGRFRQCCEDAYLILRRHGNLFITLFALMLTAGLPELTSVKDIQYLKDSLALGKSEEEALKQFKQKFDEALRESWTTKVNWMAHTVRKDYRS
Sequence of PI3Kβ (P27986 whole entry partner): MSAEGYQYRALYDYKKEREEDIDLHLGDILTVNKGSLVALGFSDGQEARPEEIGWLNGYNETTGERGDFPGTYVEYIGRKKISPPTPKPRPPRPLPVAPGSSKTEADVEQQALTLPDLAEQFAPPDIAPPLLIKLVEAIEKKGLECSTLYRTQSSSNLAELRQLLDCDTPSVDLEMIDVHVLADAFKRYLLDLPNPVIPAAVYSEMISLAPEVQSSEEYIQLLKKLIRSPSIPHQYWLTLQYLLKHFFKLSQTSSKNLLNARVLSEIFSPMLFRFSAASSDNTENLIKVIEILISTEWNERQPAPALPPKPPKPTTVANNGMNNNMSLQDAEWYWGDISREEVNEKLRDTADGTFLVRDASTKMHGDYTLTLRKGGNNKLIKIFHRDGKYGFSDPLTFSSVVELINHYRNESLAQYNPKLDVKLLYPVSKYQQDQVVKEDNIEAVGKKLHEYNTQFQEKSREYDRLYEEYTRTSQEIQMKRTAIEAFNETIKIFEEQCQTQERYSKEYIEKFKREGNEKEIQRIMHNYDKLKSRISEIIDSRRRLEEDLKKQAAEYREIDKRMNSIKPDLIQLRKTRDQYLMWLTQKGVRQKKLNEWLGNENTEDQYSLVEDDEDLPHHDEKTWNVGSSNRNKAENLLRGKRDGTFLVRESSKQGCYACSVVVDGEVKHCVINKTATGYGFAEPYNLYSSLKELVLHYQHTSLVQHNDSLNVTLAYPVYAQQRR

| Compound | pIC50 |
| --- | --- |
| CC(Nc1cc(F)cc(F)c1)c1cc(C(=O)N2CC[C@H](O)C2)cc2c(=O)cc(N3CCOCC3)oc12 (single isomer, unassigned) [Example 2.08] | 8.15 |
| CC(Nc1ccc(F)c(F)c1)c1cc(C(=O)N(C)C)cc2c(=O)cc(N3CCOCC3)oc12 (single isomer, unassigned) [Example 3.03a, 8-(1-(3,4-difluorophenylamino)ethyl)-N,N-dimethyl-2-morpholino-4-oxo-4H-chromene-6-carboxamide] | 6.19 |
| CC(Nc1ccc(F)c(F)c1)c1cc(C(=O)N(C)C)cc2c(=O)cc(N3CCOCC3)oc12 (single isomer, unassigned) [Example 3.03b, 8-(1-(3,4-difluorophenylamino)ethyl)-N,N-dimethyl-2-morpholino-4-oxo-4H-chromene-6-carboxamide] | 8.52 |
| CC(Nc1cccc(Cl)c1F)c1cc(C(=O)N(C)C)cc2c(=O)cc(N3CCOCC3)oc12 (single isomer, unassigned) [Example 3.04a, 8-(1-(3-chloro-2-fluorophenylamino)ethyl)-N,N-dimethyl-2-morpholino-4-oxo-4H-chromene-6-carboxamide] | 5.65 |
| CC(Nc1cccc(Cl)c1F)c1cc(C(=O)N(C)C)cc2c(=O)cc(N3CCOCC3)oc12 (single isomer, unassigned) [Example 3.04b, 8-(1-(3-chloro-2-fluorophenylamino)ethyl)-N,N-dimethyl-2-morpholino-4-oxo-4H-chromene-6-carboxamide] | 8.52 |
| CC(c1cc(C(=O)N2CCC(O)CC2)cc2c(=O)cc(N3CCOCC3)oc12)N(C)c1cc(F)cc(F)c1 (single isomer, unassigned) [Example 7.01a, 8-(1-((3,5-difluorophenyl)(methyl)amino)ethyl)-6-(4-hydroxypiperidine-1-carbonyl)-2-morpholino-4H-chromen-4-one] | 8.10 |
| CC(c1cc(C(=O)N2CCC(O)CC2)cc2c(=O)cc(N3CCOCC3)oc12)N(C)c1cc(F)cc(F)c1 (single isomer, unassigned) [Example 7.01b, 8-(1-((3,5-difluorophenyl)(methyl)amino)ethyl)-6-(4-hydroxypiperidine-1-carbonyl)-2-morpholino-4H-chromen-4-one] | 5.37 |
| CC(Nc1cc(F)cc(F)c1)c1cc(C(=O)N(C)C)cc2c(=O)cc(N3CCO[C@H](C)C3)oc12 (single isomer, unassigned) [Example 9.01a] | 4.75 |
| CC(Nc1cc(F)cc(F)c1)c1cc(C(=O)N(C)C)cc2c(=O)cc(N3CCO[C@H](C)C3)oc12 (single isomer, unassigned) [Example 9.01b] | 8.52 |
| CC(Nc1cc(F)cc(F)c1)c1cc(C(=O)N(C)C)cc2c(=O)cc(N3CCO[C@@H](C)C3)oc12 (single isomer, unassigned) [Example 9.02a] | 4.64 |
| CC(Nc1cc(F)cc(F)c1)c1cc(C(=O)N(C)C)cc2c(=O)cc(N3CCO[C@@H](C)C3)oc12 (single isomer, unassigned) [Example 9.02b] | 8.15 |
| CC(Nc1cc(F)cc(F)c1F)c1cc(C(=O)N(C)C)cc2c(=O)cc(N3CCOCC3)oc12 (single isomer, unassigned; (-)) [Example 3.13b, (−)-N,N-dimethyl-2-morpholino-4-oxo-8-(1-(2,3,5-trifluorophenylamino)ethyl)-4H-chromene-6-carboxamide] | 8.40 |
| CC(Nc1cccc(F)c1)c1cc(C(=O)NCCN(C)C)cc2c(=O)cc(N3CCOCC3)oc12 (stereo not shown) [Example 1.01, N-(2-(dimethylamino)ethyl)-8-(1-(3-fluorophenylamino)ethyl)-2-morpholino-4-oxo-4H-chromene-6-carboxamide] | 9.00 |
| CC(Nc1ccccc1)c1cc(C(=O)NCCN(C)C)cc2c(=O)cc(N3CCOCC3)oc12 (stereo not shown) [Example 1.02, N-(2-(dimethylamino)ethyl)-2-morpholino-4-oxo-8-(1-(phenylamino)ethyl)-4H-chromene-6-carboxamide] | 8.70 |
| CC(Nc1cc(F)cc(F)c1)c1cc(C(=O)N2CCOCC2)cc2c(=O)cc(N3CCOCC3)oc12 (stereo not shown) [Example 2.07, 8-(1-(3,5-difluorophenylamino)ethyl)-6-(morpholine-4-carbonyl)-2-morpholino-4H-chromen-4-one] | 8.30 |

The remaining lines, values ahead:

| pIC50 | Compound |
| --- | --- |
| 8.05 | CC(Nc1cccc(Cl)c1F)c1cc(C(=O)NCCN(C)C)cc2c(=O)cc(N3CCOCC3)oc12 (stereo not shown) [Example 2.00, 8-(1-(3-chloro-2-fluorophenylamino)ethyl)-N-(2-(dimethylamino)ethyl)-2-morpholino-4-oxo-4H-chromene-6-carboxamide] |
| 8.15 | CC(Nc1ccc(F)cc1)c1cc(C(=O)N(C)C)cc2c(=O)cc(N3CCOCC3)oc12 (stereo not shown) [Example 2.01, 8-(1-(4-fluorophenylamino)ethyl)-N,N-dimethyl-2-morpholino-4-oxo-4H-chromene-6-carboxamide] |
| 8.15 | CC(Nc1ccc(F)cc1)c1cc(C(=O)N(C)CCN(C)C)cc2c(=O)cc(N3CCOCC3)oc12 (stereo not shown) [Example 2.02, N-(2-(dimethylamino)ethyl)-8-(1-(4-fluorophenylamino)ethyl)-N-methyl-2-morpholino-4-oxo-4H-chromene-6-carboxamide] |
| 8.22 | CC(Nc1ccc(F)c(Cl)c1)c1cc(C(=O)N2CCC(O)CC2)cc2c(=O)cc(N3CCOCC3)oc12 (stereo not shown) [Example 2.03, 8-(1-(3-chloro-4-fluorophenylamino)ethyl)-6-(4-hydroxypiperidine-1-carbonyl)-2-morpholino-4h-chromen-4-one] |
| 8.40 | CC(Nc1ccc(F)c(Cl)c1)c1cc(C(=O)N(C)CCO)cc2c(=O)cc(N3CCOCC3)oc12 (stereo not shown) [Example 2.04, 8-(1-(3-chloro-4-fluorophenylamino)ethyl)-N-(2-hydroxyethyl)-N-methyl-2-morpholino-4-oxo-4H-chromene-6-carboxamide] |
| 8.22 | CC(Nc1cccc(Cl)c1F)c1cc(C(=O)N2CCC(O)CC2)cc2c(=O)cc(N3CCOCC3)oc12 (stereo not shown) [Example 2.06, 8-(1-(3-chloro-2-fluorophenylamino)ethyl)-6-(4-hydroxypiperidine-1-carbonyl)-2-morpholino-4H-chromen-4-one] |
| 8.15 | CC(c1cc(C(=O)NCCN(C)C)cc2c(=O)cc(N3CCOCC3)oc12)N(C)c1ccc(F)cc1 (stereo not shown) [Example 3.00, N-(2-(dimethylamino)ethyl)-8-(1-((4-fluorophenyl)(methyl)amino)ethyl)-2-morpholino-4-oxo-4H-chromene-6-carboxamide] |
| 7.96 | CC(c1cc(C(=O)N(C)CCN(C)C)cc2c(=O)cc(N3CCOCC3)oc12)N(C)c1ccc(F)cc1 (stereo not shown) [Example 3.02, N-(2-(dimethylamino)ethyl)-8-(1-((4-fluorophenyl)(methyl)amino)ethyl)-N-methyl-2-morpholino-4-oxo-4H-chromene-6-carboxamide] |
| 8.22 | CC(Nc1ccc(F)c(Cl)c1)c1cc(C(=O)N(C)C)cc2c(=O)cc(N3CCOCC3)oc12 (stereo not shown) [Example 3.05, 8-(1-(3-chloro-4-fluorophenylamino)ethyl)-N,N-dimethyl-2-morpholino-4-oxo-4H-chromene-6-carboxamide] |
| 7.96 | CC(c1cc(C(=O)N(C)C)cc2c(=O)cc(N3CCOCC3)oc12)N(C)c1ccc(F)c(Cl)c1 (stereo not shown) [Example 3.08, 8-(1-((3-chloro-4-fluorophenyl)(methyl)amino)ethyl)-N,N-dimethyl-2-morpholino-4-oxo-4H-chromene-6-carboxamide] |
| 8.40 | CC(Nc1cccc(Cl)c1)c1cc(C(=O)N(C)C)cc2c(=O)cc(N3CCOCC3)oc12 (stereo not shown) [Example 3.09, 8-(1-(3-chlorophenylamino)ethyl)-N,N-dimethyl-2-morpholino-4-oxo-4H-chromene-6-carboxamide] |
| 8.40 | CC(Nc1cccc(F)c1F)c1cc(C(=O)N(C)C)cc2c(=O)cc(N3CCOCC3)oc12 (stereo not shown) [Example 3.10, 8-(1-(2,3-difluorophenylamino)ethyl)-N,N-dimethyl-2-morpholino-4-oxo-4H-chromene-6-carboxamide] |
| 8.22 | CC(Nc1cc(F)cc(F)c1F)c1cc(C(=O)N(C)C)cc2c(=O)cc(N3CCOCC3)oc12 (stereo not shown) [Example 3.13, N,N-dimethyl-2-morpholino-4-oxo-8-(1-(2,3,5-trifluorophenylamino)ethyl)-4H-chromene-6-carboxamide] |
| 8.00 | CC(Nc1cc(F)ccc1F)c1cc(C(=O)N(C)C)cc2c(=O)cc(N3CCOCC3)oc12 (stereo not shown) [Example 3.15, 8-(1-(2,5-difluorophenylamino)ethyl)-N,N-dimethyl-2-morpholino-4-oxo-4H-chromene-6-carboxamide] |
| 8.30 | Cc1cc(F)cc(NC(C)c2cc(C(=O)N(C)C)cc3c(=O)cc(N4CCOCC4)oc23)c1 (stereo not shown) [Example 3.16, 8-(1-(3-fluoro-5-methylphenylamino)ethyl)-N,N-dimethyl-2-morpholino-4-oxo-4H-chromene-6-carboxamide] |

Same assay, conditions: mean IC50 value calculated from a larger number of replicates; read-out: PI3Kβ inhibition, IC50 (value in brackets)

| pIC50 | Compound |
| --- | --- |
| 8.30 | CC(Nc1cccc(F)c1)c1cc(C(=O)N(C)C)cc2c(=O)cc(N3CCOCC3)oc12 (stereo not shown) [Example 3.12, 8-(1-(3-fluorophenylamino)ethyl)-N,N-dimethyl-2-morpholino-4-oxo-4H-chromene-6-carboxamide] |
